In ChEMBL document CHEMBL5154653, “The discovery of 1, 3-diamino-7H-pyrrol[3, 2-f]quinazoline compounds as potent antimicrobial antifolates” (Eur J Med Chem, 2022):
Calls of active or inactive are those of the source. The calls are words filed in the database; no cut-off is given here.

Experiments:
[1] = system: Escherichia coli; assay: Inhibition of Escherichia coli C-terminal hexahistidine tagged DHFR at 5 uM incubated for 5 mins in presence of NADPH by measuring oxidation of NADPH to NADP+
[2] = system: Escherichia coli; assay: Antibacterial activity against Escherichia coli ATCC 25922 assessed as reduction in microbial growth after 16 to 18 hrs by microbroth dilution method; format: functional; conditions: time 16-18 hrs
[3] = system: Klebsiella pneumoniae; assay: Antibacterial activity against Klebsiella pneumoniae ATCC 700603 assessed as reduction in microbial growth after 16 to 18 hrs by microbroth dilution method; format: functional; conditions: time 16-18 hrs
[4] = system: Acinetobacter baumannii; assay: Antibacterial activity against Acinetobacter baumannii ATCC 19606 assessed as reduction in microbial growth after 16 to 18 hrs by microbroth dilution method; format: functional; conditions: time 16-18 hrs
[5] = Inhibition of Escherichia coli C-terminal hexahistidine tagged DHFR incubated for 5 mins in presence of NADPH by measuring oxidation of NADPH to NADP+
[6] = system: Escherichia coli; assay: Binding affinity to Escherichia coli C-terminal hexahistidine tagged DHFR assessed as change in enthalpy at 0.2 mM by isothermal titration calorimetry method
[7] = system: Escherichia coli; assay: Binding affinity to Escherichia coli C-terminal hexahistidine tagged DHFR assessed as change in entropy at 0.2 mM by isothermal titration calorimetry method
[8] = Binding affinity to Escherichia coli C-terminal hexahistidine tagged DHFR assessed as dissociation constant by isothermal titration calorimetry method
[9] = system: Escherichia coli; assay: Binding affinity to Escherichia coli C-terminal hexahistidine tagged DHFR assessed as change in gibbs free energy at 0.2 mM by isothermal titration calorimetry method
[10] = system: Acinetobacter baumannii; assay: Antibacterial activity against multi drug resistant Acinetobacter baumannii CCPM(A)-100902 assessed as reduction in microbial growth after 16 to 18 hrs by microbroth dilution method; format: functional; conditions: time 16-18 hrs
[11] = system: Acinetobacter baumannii; assay: Antibacterial activity against multi drug resistant Acinetobacter baumannii CCPM(A)-100903 assessed as reduction in microbial growth after 16 to 18 hrs by microbroth dilution method; format: functional; conditions: time 16-18 hrs
[12] = system: Acinetobacter baumannii; assay: Antibacterial activity against multi drug resistant Acinetobacter baumannii CCPM(A)-1100708 assessed as reduction in microbial growth after 16 to 18 hrs by microbroth dilution method; format: functional; conditions: time 16-18 hrs
[13] = system: Acinetobacter baumannii; assay: Antibacterial activity against Acinetobacter baumannii CCPM(A)-100946 assessed as reduction in microbial growth after 16 to 18 hrs by microbroth dilution method; format: functional; conditions: time 16-18 hrs
[14] = system: Acinetobacter baumannii; assay: Antibacterial activity against Acinetobacter baumannii CCPM(A)-100947 assessed as reduction in microbial growth after 16 to 18 hrs by microbroth dilution method; format: functional; conditions: time 16-18 hrs
[15] = system: Klebsiella pneumoniae; assay: Antibacterial activity against ESBL-producing Klebsiella pneumoniae CCPM(A)-081514 assessed as reduction in microbial growth after 16 to 18 hrs by microbroth dilution method; format: functional; conditions: time 16-18 hrs
[16] = system: Klebsiella pneumoniae; assay: Antibacterial activity against ESBL-producing Klebsiella pneumoniae CCPM(A)-081568 assessed as reduction in microbial growth after 16 to 18 hrs by microbroth dilution method; format: functional; conditions: time 16-18 hrs
[17] = system: Klebsiella pneumoniae; assay: Antibacterial activity against Klebsiella pneumoniae CCPM(A)-081018 assessed as reduction in microbial growth after 16 to 18 hrs by microbroth dilution method; format: functional; conditions: time 16-18 hrs
[18] = system: Escherichia coli; assay: Antibacterial activity against Escherichia coli CCPM(A)-0715118 assessed as reduction in microbial growth after 16 to 18 hrs by microbroth dilution method; format: functional; conditions: time 16-18 hrs
[19] = system: Escherichia coli; assay: Antibacterial activity against ESBL-producing Escherichia coli CCPM(A)-071030 assessed as reduction in microbial growth after 16 to 18 hrs by microbroth dilution method; format: functional; conditions: time 16-18 hrs
[20] = system: Escherichia coli; assay: Antibacterial activity against ESBL-producing Escherichia coli CCPM(A)-0715117 assessed as reduction in microbial growth after 16 to 18 hrs by microbroth dilution method; format: functional; conditions: time 16-18 hrs
[21] = system: Escherichia coli; assay: Antibacterial activity against ESBL-producing Escherichia coli CCPM(A)-0715142 assessed as reduction in microbial growth after 16 to 18 hrs by microbroth dilution method; format: functional; conditions: time 16-18 hrs
[22] = system: Staphylococcus aureus; assay: Antibacterial activity against Staphylococcus aureus ATCC 29213 assessed as reduction in microbial growth after 16 to 18 hrs by microbroth dilution method; format: functional; conditions: time 16-18 hrs
[23] = system: Staphylococcus aureus; assay: Antibacterial activity against methicillin-resistant Staphylococcus aureus ATCC 43300 assessed as reduction in microbial growth after 16 to 18 hrs by microbroth dilution method; format: functional; conditions: time 16-18 hrs
[24] = system: Enterococcus faecium; assay: Antibacterial activity against vancomycin-resistant Enterococcus faecium ATCC 51559 assessed as reduction in microbial growth after 16 to 18 hrs by microbroth dilution method; format: functional; conditions: time 16-18 hrs
[25] = system: Escherichia coli; assay: Antibacterial activity against Escherichia coli ATCC 25922 overexpressing DHFR assessed as reduction in microbial growth after 16 to 18 hrs by microbroth dilution method; format: functional; conditions: time 16-18 hrs
[26] = target: Thymidylate synthase (Escherichia coli K-12, UniProt P0A884); assay: Inhibition of Escherichia coli N-terminal hexahstidine-tagged TS by steady-state kinetic analysis
Chain of Thymidylate synthase (P0A884 whole entry): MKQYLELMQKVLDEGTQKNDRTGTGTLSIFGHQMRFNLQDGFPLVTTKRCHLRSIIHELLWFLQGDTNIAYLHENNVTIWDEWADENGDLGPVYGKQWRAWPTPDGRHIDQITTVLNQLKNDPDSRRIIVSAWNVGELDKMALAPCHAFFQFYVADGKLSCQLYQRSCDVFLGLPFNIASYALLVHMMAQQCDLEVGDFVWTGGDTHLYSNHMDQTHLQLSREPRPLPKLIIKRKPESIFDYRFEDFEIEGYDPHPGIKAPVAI

[27] = target: Thymidylate synthase (Escherichia coli K-12) (UniProt P0A884); assay: Binding affinity to Escherichia coli […] hexahistidine-tagged TS at 20 uM by biolayer interferometry assay
Chain of Thymidylate synthase (Escherichia coli K-12) (P0A884 whole entry, looked up): as the sequence (P0A884 whole entry) above

[28] = system: Klebsiella pneumoniae; assay: Antibacterial activity against ESBL-producing Klebsiella pneumoniae ATCC 700603 assessed as reduction in microbial growth after 16 to 18 hrs by microbroth dilution method; format: functional; conditions: time 16-18 hrs
[29] = system: Escherichia coli; assay: Antibacterial activity against Escherichia coli ATCC 25922 assessed as blockage of folate pathway after 16 to 18 hrs in presence of thymine by microbroth dilution method; format: functional; conditions: time 16-18 hrs
[30] = system: Escherichia coli; assay: Antibacterial activity against Escherichia coli ATCC 25922 overexpressing DHFR assessed as fold increase in MIC after 16 to 18 hrs by microbroth dilution method; format: functional; conditions: time 16-18 hrs
[31] = system: Escherichia coli; assay: Antibacterial activity against Escherichia coli ATCC 25922 assessed as blockage of folate pathway after 16 to 18 hrs in presence of thymine by measuring fold increase in MIC by microbroth dilution method; format: functional; conditions: time 16-18 hrs
[32] = target: Thymidylate synthase (Escherichia coli K-12) (UniProt P0A884); assay: Inhibition of Escherichia coli N-terminal hexahstidine-tagged TS at 500 uM by steady-state kinetic analysis

Row | SMILES | inhibition [1] [%] | MIC [2] [µg/mL] | MIC [3] [µg/mL] | MIC [4] [µg/mL] | IC50 [5] [nM] | deltaH [6] [kcal/mol] | deltaS [7] [cal/mol/deg] | Kd [8] [nM] | deltaG [9] [kcal/mol] | MIC [10] [µg/mL] | MIC [11] [µg/mL] | MIC [12] [µg/mL] | MIC [13] [µg/mL] | MIC [14] [µg/mL] | MIC [15] [µg/mL] | MIC [16] [µg/mL] | MIC [17] [µg/mL] | MIC [18] [µg/mL] | MIC [19] [µg/mL] | MIC [20] [µg/mL] | further results
1 | Nc1nc(N)c2c(ccc3c2ccn3Cc2cccs2)n1 | 92.8 | 0.002 | 1 | 1 | 15.9 | -18.5 | -24.1 | 4.85 | -11.3 | 0.25 | 8 | 8 | 8 | 0.5 | 0.06 | 0.002 | 16 | 16 | 0.002 | 0.002 | MIC [21]: 0.002 µg/mL; MIC [22]: 0.03 µg/mL; MIC [23]: 0.25 µg/mL; MIC [24]: 0.03 µg/mL; MIC [25]: 8 µg/mL; IC50 [26]: 11400 nM; Activity [27]: Active; MIC [28]: ≤ 0.25 µg/mL; MIC [29]: 16 µg/mL; fold change (FC) [30]: 4000; fold change (FC) [31]: 8000; inhibition [32]: 50%
2 | CCn1ccc2c3c(N)nc(N)nc3ccc21 | 21.6 | 0.25 | 1 | 8 |  |  |  |  |  |  |  |  |  |  |  |  |  |  |  |  | 
3 | Nc1nc(N)c2c(ccc3c2ccn3Cc2cccc(F)c2)n1 | 61 | 0.002 | 0.25 | 0.125 | 98.4 | -23.3 | -45.8 | 75.2 | -9.71 | 0.0125 | 4 | 4 | 0.25 | 0.125 | 0.5 | 0.002 | 16 | 16 | 0.002 | 0.002 | MIC [21]: 0.002 µg/mL; MIC [22]: 0.125 µg/mL; MIC [23]: 0.06 µg/mL; MIC [24]: 0.125 µg/mL; MIC [25]: 8 µg/mL; IC50 [26]: 18600 nM; Activity [27]: Active; MIC [28]: ≤ 0.25 µg/mL; MIC [29]: 8 µg/mL; fold change (FC) [31]: 4000; inhibition [32]: 50%

More lines, main results first:

Row | inhibition [1] [%] | MIC [2] [µg/mL] | MIC [3] [µg/mL] | MIC [4] [µg/mL] | SMILES | IC50 [5] [nM] | deltaH [6] [kcal/mol] | deltaS [7] [cal/mol/deg] | Kd [8] [nM] | deltaG [9] [kcal/mol] | MIC [10] [µg/mL] | MIC [11] [µg/mL] | MIC [12] [µg/mL] | MIC [13] [µg/mL] | MIC [14] [µg/mL] | MIC [15] [µg/mL] | MIC [16] [µg/mL] | MIC [17] [µg/mL] | MIC [18] [µg/mL] | MIC [19] [µg/mL] | MIC [20] [µg/mL] | further results
4 | 20.9 | 0.25 | 0.5 | 4 | Nc1nc(N)c2c(ccc3c2ccn3CC2CC2)n1 |  |  |  |  |  |  |  |  |  |  |  |  |  |  |  |  | 
5 | 13.3 | 16 | 32 | 16 | Nc1nc(N)c2c(ccc3c2ccn3Cc2nnc(-c3ccc(C(F)(F)F)cc3)o2)n1 |  |  |  |  |  |  |  |  |  |  |  |  |  |  |  |  | 
6 | 80.3 | 8 | 32 | 128 | Nc1nc(N)c2c(ccc3c2ccn3Cc2ccc(C(=O)N3CCOCC3)cc2)n1 |  |  |  |  |  |  |  |  |  |  |  |  |  |  |  |  | 
